Common to all, as to assay type: biochemical
One assay concerns the target T1, FXIIa (Homo sapiens, UniProt P00748).
T1 construct: purchased Enzyme Research Laboratories, Inc. (South Bend, Ind.)
T1 sequence (P00748 373-615 limits assumed): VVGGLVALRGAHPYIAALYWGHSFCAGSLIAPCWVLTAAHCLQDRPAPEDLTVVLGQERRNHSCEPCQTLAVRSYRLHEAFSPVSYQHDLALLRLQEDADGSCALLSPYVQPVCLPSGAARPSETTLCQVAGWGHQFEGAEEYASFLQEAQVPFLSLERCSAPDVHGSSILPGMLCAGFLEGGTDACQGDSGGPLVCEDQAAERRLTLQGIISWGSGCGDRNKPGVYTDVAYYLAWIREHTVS
T1 sequence (P00748 20-372 limits assumed): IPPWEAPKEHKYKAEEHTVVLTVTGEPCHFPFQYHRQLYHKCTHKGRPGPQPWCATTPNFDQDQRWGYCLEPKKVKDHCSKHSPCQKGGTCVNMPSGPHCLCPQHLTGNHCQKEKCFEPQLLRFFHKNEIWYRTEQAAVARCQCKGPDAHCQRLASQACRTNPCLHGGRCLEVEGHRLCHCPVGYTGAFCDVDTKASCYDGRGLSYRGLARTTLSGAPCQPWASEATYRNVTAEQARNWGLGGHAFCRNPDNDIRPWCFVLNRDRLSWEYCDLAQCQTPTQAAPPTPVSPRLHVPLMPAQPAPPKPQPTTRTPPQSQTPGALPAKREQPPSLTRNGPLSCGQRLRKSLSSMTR
Kind of assay: FXIIa enzyme inhibition assay (Ki*).

The target of another assay is T2, FXa (Homo sapiens, UniProt P00742).
T2 construct: purchased Haematologic Technologies Inc. (Essex Jct., Vt.)
T2 sequence (P00742 235-488 limits assumed): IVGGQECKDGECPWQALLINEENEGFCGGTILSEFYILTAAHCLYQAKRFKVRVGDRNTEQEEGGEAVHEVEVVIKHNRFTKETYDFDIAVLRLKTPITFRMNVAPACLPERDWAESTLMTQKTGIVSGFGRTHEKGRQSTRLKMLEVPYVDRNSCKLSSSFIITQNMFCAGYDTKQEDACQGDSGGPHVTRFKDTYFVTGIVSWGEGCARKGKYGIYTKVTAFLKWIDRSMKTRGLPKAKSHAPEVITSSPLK
T2 sequence (P00742 41-179 limits assumed): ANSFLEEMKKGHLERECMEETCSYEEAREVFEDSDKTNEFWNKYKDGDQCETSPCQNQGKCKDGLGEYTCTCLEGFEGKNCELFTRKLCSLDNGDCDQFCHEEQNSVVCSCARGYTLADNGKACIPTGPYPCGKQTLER
Kind of assay: FXa enzyme inhibition assay (Ki*).

The target of the next assay is thrombin (Homo sapiens, UniProt P00734). As to the kind of experiment: thrombin enzyme inhibition assay (Ki*).
Another assay has as its target T3, activated protein C (Homo sapiens, UniProt P04070).
T3 construct: purchased Haematologic Technologies Inc. (Essex Jct., Vt.)
As to the kind of experiment: activated protein C enzyme inhibition assay (Ki*).

The target in a further assay is T4, TF.cndot.FVIIa (Homo sapiens, UniProt P08709).
T4 construct: is generated by proteolysis of a single peptide bond from its zymogen Factor VII (FVII); purchased Haematologic Technologies Inc. (Essex Jct., Vt.); host or cells: TF1-243 made in house in E. coli
T4 sequence (P08709 213-466 limits assumed): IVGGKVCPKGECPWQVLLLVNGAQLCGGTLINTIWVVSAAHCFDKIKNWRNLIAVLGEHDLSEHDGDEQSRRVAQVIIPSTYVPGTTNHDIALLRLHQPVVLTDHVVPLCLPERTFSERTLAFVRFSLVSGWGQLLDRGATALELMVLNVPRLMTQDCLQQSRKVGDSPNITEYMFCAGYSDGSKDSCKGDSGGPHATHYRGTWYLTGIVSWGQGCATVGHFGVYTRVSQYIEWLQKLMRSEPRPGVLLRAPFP
T4 sequence (P08709 61-212 limits assumed): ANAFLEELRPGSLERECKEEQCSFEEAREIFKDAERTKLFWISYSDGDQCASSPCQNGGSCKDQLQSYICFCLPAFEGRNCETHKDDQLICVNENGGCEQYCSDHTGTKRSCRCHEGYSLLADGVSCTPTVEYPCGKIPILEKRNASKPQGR
T4 sequence (P13726 33-275 partner limits assumed): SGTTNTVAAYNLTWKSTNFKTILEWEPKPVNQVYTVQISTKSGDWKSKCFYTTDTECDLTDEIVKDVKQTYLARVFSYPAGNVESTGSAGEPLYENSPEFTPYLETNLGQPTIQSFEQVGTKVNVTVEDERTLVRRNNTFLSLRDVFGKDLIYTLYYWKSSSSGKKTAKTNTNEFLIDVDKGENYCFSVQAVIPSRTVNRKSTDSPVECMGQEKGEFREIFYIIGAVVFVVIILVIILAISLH
As to the kind of experiment: TF·FVIIa enzyme inhibition assay, apparent equilibrium dissociation constant (Ki*). On the procedure: Aliquots (25 μL) from each well of a microtiter plate containing the serially diluted inhibitors were transferred into new microtiter plates, each containing a different protease (100 μL) in the appropriate buffer. The proteases tested (protease concentration, buffer, substrate) were FVIIa (10 nM, Buffer A, 0.7 mM S2366), FXIa (1.0 nM, Buffer B containing 1 mg/ml BSA, 0.7 mM S2366), plasma kallikrein (3.5 nM, Buffer B, 0.5 mM S2302), and plasmin (15 nM, Buffer B, 1 mM S2251).

Assay [1] has as its system normal human plasma, clotting initiated by ellagic acid. Kind of assay: activated partial thromboplastin time (APTT) assay. The following applies: ca. 7 μM inhibitor. On the procedure: FIG. 7. Prolongation of clotting time in the APTT assay in normal human plasma. […] The uninhibited clotting time was 31 sec.
For the activated partial thromboplastin time (APTT) assays, the activation time was set at 120 sec and acquisition time at 300 to 600 sec depending on the expected outcome of the assay. Citrated normal human plasma and inhibitor were incubated together. The sample (plasma and inhibitor) and activator (Instrumentation Laboratories Ellagic acid/Phospholipid mix Test Reagent) were automatically pipetted and incubated together for 2 min at 37° C., then CaCl2 was added and clotting time determined by means of optical assessment. The total incubation time of inhibitor with plasma was ca. 3 min before addition of activator, and 5 min before addition of CaCl2.

In assay [2] the test system is normal human plasma, clotting initiated by TF membranes. As to the kind of experiment: tissue factor initiated prothrombin time (PT) assay. On the procedure: FIG. 6. Prolongation of clotting time in the PT assay in normal human plasma. […] The uninhibited clotting time was 48 sec.
Clotting times were performed using the ACL 300 Research Coagulation Analyzer. For the prothrombin time (PT) assays, the incubation time was set at 120 sec and acquisition time at 120 to 600 sec depending on the expected outcome of the assay. Membranes from 293 cells expressing full length TF (Paborsky, L. R. et al., Biochemistry 28: 8072-8077 [1989]) were premixed with CaCl2. The sample (plasma and inhibitor) and reagent (CaCl2 /TF) were automatically mixed together after a 2 min incubation at 37° C. The clotting time was determined by optical assessment. The total incubation time of inhibitor with plasma before addition of CaCl2 /TF was ca. 5 min. Final concentrations were 2 to 20 μM inhibitor, 3.7 nM TF (0.9 μg/ml by protein content), 22.5 mM CaCl2, and 50% plasma in a total volume of 160 μL.

Where [3] appears, read: equilibrium conditions, read-out: apparent Ki* with TF.cndot.FVIIa (FIG. 4).

Like-named read-outs stand apart in the source and are kept apart here. Positions of bridges follow the written chain, without caps; N, C: chain ends. No end group written: not given here.

T3 sequence (P04070 212-450 limits assumed): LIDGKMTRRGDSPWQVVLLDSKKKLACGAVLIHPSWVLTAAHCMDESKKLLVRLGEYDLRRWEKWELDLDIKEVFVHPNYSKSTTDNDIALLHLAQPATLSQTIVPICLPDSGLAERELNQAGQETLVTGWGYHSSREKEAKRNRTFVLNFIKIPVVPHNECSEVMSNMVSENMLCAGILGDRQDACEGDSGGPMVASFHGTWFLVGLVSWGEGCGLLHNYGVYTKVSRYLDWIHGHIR
T3 sequence (P04070 43-197 limits assumed): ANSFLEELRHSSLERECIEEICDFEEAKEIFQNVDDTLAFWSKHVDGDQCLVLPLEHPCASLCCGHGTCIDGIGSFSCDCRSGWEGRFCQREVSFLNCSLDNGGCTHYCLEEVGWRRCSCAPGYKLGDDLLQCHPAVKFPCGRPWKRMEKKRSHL
Protocol for FXIIa: (§1) To aliquots of serial diluted inhibitor, either activated protein C, thrombin, FXa, FXIa, FXIIa, plasma kallikrein or plasmin were added. After incubation and addition of the appropriate substrate, plots of fractional activity versus inhibitor concentration were generated as described in Example 3.
(§2) After incubation of the substrate/inhibitor mixes at room temperature for 1-3 h, the appropriate substrate (20 μL) was added, and the absorbance at 405 nm was monitored. Controls lacking inhibitor and enzyme were assayed to measure the uninhibited and substrate hydrolysis rates, respectively. Plots of the fractional rate versus inhibitor concentration were fit by nonlinear regression analysis to equation 1 and apparent equilibrium dissociation constants (Ki *) were determined. […] The concentrations of activated protein C, thrombin and plasmin were based upon those of the supplier.
Protocol for FXa: as §1, §2
Protocol for activated protein C: as §1, §2

With “VREVCSEQAETGPCRAMISRWYFDVTEGKCAPFFYGGCGGNRNNFDTEEYCMAVCGSA (disulfide 5-55, 14-38, 30-51) [APPI]”, the Ki on FXIIa is more than 10 µM; at FXa, more than 10 µM; on thrombin, more than 10 µM; at activated protein C it was more than 10 µM; on TF.cndot.FVIIa (FVIIa 10 nM, TF1-243 50 nM, nonlinear regression, equation 1, read-out: Ki* with TF.cndot.FVIIa (FIG. 5, representative determination)) it was 300 nM; on TF.cndot.FVIIa (setting [3]) it was 301 ± 44 nM.
For “TF7I-C: APPI Kunitz domain variant (SEQ ID NO: 33) with Thr11Pro, Met17Leu, Ser19Leu and Gly39Tyr compared to wild type APPI”, the “prolongation of clotting time in APTT assay” value in assay [1] is on record as “greater than 10 fold”. Besides, the “prolongation of clotting time in PT assay” value is given as approximately 3 fold in assay [2] (10 μM inhibitor, clotting initiated by TF membranes) and 4 fold in assay [2] (ca. 20 μM inhibitor).
As to “first Kunitz domain of TFPI: first Kunitz domain (residues 22-79) of human tissue factor pathway inhibitor (MHSFCAFKADDGPCKAIMKRFFFNIFTRQCEEFIYGGCEGNQNRFESLEECKKMCTRD)”, the Ki with TF.cndot.FVIIa (setting [3]) was approximately 600 nM.

The values are drawn from US5795954A, “Factor VIIa inhibitors from Kunitz domain proteins” (Genentech, Inc., priority 1994, dated 1998).
